One assay addresses T1, Ba/F3-TPR-MET cells (Homo sapiens, UniProt P08581).
T1 construct: fused on or other part: P12270 (Nucleoprotein TPR)
The assay is described as follows: CellTiter-Glo Cell Viability Assay, Ba/F3-TPR-MET. It is filed as cell-based. Particulars: 72 hours. The essentials: (§1)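 Ba/F3 cells carrying TPR-MET or TPR-MET-D1228N, 3000 per well, were exposed for 72 h at 37 °C to 9-point 3-fold compound dilutions at 0.1% DMSO. Viability was read as ATP by CellTiter-Glo 2.0 luminescence, and IC50 values came from curve fitting.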

The target in the next assay is T2, MET D1228N (Homo sapiens, UniProt P08581, D1228N).
T2 construct: purchased Signalchem M52-12IG
T2 sequence (P08581 25-1390 D1228N): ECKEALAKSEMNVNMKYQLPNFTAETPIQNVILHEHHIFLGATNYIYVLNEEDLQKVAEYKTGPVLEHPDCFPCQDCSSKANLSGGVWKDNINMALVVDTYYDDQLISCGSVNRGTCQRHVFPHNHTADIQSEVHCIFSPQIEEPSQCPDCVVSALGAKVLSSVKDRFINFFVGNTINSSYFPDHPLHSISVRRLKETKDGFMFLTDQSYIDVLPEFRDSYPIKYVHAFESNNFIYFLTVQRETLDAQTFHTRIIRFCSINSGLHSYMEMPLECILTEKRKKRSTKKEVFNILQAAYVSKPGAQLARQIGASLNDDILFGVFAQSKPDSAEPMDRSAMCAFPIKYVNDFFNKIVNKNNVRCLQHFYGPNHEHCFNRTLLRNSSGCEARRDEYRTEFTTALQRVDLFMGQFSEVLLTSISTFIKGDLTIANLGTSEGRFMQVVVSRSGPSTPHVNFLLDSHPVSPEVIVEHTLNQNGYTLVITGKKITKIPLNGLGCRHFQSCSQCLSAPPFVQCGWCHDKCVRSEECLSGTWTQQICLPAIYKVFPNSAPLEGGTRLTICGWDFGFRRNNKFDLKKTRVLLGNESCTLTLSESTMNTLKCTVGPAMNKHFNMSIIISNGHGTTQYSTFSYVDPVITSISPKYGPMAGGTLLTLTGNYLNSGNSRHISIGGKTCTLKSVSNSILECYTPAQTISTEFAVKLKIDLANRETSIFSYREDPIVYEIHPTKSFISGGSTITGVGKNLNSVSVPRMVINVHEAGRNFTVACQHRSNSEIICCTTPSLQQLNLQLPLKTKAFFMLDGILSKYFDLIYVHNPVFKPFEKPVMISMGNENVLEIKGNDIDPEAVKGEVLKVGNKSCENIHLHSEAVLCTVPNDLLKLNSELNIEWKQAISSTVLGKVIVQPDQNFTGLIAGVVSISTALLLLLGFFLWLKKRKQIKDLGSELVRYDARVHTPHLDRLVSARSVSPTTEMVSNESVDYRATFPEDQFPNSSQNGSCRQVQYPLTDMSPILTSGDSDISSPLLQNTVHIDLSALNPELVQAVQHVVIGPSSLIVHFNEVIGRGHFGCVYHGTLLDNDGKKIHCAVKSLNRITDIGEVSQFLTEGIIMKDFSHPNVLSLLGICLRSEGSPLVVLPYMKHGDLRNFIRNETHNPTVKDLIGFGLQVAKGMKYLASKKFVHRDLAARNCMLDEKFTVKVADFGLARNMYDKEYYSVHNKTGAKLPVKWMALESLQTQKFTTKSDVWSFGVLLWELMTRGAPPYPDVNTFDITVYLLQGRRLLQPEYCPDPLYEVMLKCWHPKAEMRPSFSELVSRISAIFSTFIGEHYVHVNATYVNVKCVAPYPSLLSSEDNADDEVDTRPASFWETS
In words: MET D1228N Mobility Shift Assay. Particulars: biochemical assay IC50; 100 μM ATP, 60 minute kinase reaction. The essentials:
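Enzyme at 0.313 nM preincubated 30 min at room temperature with 1.5 μM FAM-labelled peptide and 10 mM MgCl2 in HEPES buffer with DTT; reaction started with 100 μM ATP, run 60 min, stopped with EDTA. Substrate/product separated by microfluidic mobility shift; IC50 from inhibition of % conversion.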

The next assay addresses T3, MET (Homo sapiens, UniProt P08581).
T3 construct: purchased Carna Biosciences 08-151
The assay is described as follows: MET Mobility Shift Assay. Particulars: biochemical assay IC50; 100 μM ATP, 60 minute kinase reaction. The gist of the method: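 Recombinant MET at 0.625 nM was pre-incubated 30 min at room temperature with 1.5 μM FLPeptide30 and 10 mM MgCl2 in HEPES buffer with DTT. The reaction was started with 100 μM ATP, ran 60 min, and was stopped with EDTA. Microfluidic mobility-shift % conversion gave IC50.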

Assay [1] addresses T4, Ba/F3-TPR-MET-D1228N cells (Homo sapiens, UniProt P08581, D1228N, cells depend on it).
T4 construct: fused on or other part: P12270 (Nucleoprotein TPR)
In words: CellTiter-Glo Cell Viability Assay, Ba/F3-TPR-MET-D1228N. To be noted: 72 hours. Type of assay: cell-based. The gist of the method: as §1
For orientation: ATP-based viability assays read luminescence as a measure of living cells.

T1 sequence (P08581 whole entry, change not shown, the tested form may be a part): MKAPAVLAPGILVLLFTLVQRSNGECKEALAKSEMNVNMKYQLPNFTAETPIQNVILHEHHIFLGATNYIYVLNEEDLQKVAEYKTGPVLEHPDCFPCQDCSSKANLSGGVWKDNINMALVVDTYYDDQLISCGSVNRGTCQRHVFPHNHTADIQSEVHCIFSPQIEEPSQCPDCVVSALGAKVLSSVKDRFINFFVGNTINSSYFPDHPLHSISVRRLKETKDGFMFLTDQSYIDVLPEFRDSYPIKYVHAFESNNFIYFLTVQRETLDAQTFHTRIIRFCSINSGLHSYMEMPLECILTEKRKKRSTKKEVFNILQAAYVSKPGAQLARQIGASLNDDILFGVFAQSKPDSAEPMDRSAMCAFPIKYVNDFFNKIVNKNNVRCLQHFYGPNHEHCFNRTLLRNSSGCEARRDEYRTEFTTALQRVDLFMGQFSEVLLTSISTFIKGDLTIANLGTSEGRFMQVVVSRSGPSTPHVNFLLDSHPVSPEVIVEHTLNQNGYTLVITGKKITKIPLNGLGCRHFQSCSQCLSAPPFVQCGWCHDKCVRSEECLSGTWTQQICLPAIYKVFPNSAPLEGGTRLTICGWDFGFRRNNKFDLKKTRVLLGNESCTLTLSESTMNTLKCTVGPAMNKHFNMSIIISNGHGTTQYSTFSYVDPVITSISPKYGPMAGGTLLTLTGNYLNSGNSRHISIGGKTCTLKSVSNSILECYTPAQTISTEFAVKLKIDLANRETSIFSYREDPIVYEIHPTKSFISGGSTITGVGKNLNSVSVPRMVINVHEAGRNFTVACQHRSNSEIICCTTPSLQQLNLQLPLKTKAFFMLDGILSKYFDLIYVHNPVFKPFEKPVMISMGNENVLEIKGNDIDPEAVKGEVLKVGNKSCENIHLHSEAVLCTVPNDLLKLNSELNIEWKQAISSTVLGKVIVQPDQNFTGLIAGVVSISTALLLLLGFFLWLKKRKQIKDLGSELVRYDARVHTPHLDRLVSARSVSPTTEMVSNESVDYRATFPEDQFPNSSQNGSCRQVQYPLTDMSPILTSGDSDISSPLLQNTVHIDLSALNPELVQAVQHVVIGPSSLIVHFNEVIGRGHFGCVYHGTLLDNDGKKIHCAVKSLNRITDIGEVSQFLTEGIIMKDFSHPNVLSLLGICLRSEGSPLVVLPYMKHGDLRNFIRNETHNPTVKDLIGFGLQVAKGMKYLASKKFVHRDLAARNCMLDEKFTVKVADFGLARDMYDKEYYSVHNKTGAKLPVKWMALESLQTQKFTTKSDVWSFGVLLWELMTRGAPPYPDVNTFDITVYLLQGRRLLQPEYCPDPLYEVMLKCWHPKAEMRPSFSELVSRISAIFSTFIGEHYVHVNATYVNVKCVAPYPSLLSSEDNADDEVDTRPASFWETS
T3 sequence (P08581 25-1390): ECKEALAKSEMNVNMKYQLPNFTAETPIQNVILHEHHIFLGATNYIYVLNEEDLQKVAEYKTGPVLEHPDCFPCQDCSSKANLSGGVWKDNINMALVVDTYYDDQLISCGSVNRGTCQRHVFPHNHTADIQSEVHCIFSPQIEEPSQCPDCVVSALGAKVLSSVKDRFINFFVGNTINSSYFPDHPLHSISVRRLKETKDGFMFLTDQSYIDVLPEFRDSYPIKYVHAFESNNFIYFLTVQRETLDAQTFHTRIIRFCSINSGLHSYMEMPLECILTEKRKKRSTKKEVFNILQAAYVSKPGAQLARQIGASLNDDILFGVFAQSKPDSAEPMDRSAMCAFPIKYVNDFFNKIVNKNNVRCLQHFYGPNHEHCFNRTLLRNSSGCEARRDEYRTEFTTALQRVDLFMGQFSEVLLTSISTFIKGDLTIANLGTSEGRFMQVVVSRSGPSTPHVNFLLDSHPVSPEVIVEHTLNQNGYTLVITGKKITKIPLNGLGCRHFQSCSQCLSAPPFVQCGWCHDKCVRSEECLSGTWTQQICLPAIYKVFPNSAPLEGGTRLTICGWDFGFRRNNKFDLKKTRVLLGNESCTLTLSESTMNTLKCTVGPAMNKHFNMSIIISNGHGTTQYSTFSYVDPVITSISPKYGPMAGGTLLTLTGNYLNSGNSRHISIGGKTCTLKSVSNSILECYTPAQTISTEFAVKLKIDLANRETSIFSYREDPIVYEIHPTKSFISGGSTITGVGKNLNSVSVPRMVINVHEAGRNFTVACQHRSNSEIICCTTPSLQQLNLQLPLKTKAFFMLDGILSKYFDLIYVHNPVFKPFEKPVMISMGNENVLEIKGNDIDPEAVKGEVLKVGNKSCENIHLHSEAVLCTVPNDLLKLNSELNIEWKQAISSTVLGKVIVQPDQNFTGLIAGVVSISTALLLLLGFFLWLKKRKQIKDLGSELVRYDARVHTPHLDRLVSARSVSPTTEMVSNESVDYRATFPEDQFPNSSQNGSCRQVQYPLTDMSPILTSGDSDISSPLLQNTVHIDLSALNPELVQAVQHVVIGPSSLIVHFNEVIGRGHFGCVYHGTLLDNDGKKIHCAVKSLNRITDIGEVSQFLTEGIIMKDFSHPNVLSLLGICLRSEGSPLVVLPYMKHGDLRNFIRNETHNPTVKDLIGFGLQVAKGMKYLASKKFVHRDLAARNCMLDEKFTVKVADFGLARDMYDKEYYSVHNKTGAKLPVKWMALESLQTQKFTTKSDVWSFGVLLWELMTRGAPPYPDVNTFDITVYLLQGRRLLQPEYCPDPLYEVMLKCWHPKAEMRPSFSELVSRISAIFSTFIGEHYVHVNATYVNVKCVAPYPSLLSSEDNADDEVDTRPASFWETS

As for `C#CCOc1ccncc1C(=O)Nc1cc(F)c(Oc2ccnc3cc(OCCNC)c(OC)cc23)c(F)c1` [Example 73, N-[3,5-difluoro-4-({6-methoxy-7-[2-(methylamino)ethoxy]quinolin-4-yl}oxy)phenyl]-4-(prop-2-yn-1-yloxy)pyridine-3-carboxamide], the EC50 (on Ba/F3-TPR-MET cells; in assay [1]) was at most 100 nM each time. Besides, the IC50 at MET D1228N and on MET was at most 100 nM each time.

Regarding `CNCCOc1cc2nccc(Oc3c(F)cc(NC(=O)c4cnccc4OC)cc3F)c2cc1OC` [Example 1, N-(3,5-difluoro-4-((6-methoxy-7-(2-(methylamino)ethoxy)quinolin-4-yl)oxy)phenyl)-4-methoxypyridine-3-carboxamide], the EC50 (at Ba/F3-TPR-MET cells; in assay [1]) was at most 100 nM in each case. For the same compound, the IC50 at MET D1228N and on MET was at most 100 nM each time.

`COc1cc2nccc(Oc3c(F)cc(NC(=O)c4cnccc4OCC(F)F)cc3F)c2cc1OCCO` [Example 143, N-(3,5-difluoro-4-((6-(2-hydroxyethoxy)-7-methoxyquinolin-4-yl)oxy)phenyl)-4-(2,2-difluoroethoxy)pyridine-3-carboxamide]: the EC50 (at Ba/F3-TPR-MET cells; in assay [1]) was at most 100 nM in each case. The IC50 on MET D1228N and at MET was at most 100 nM throughout.

Turning to `CNCCOc1cc2nccc(Oc3c(F)cc(NC(=O)c4cnc(NCCOC)cc4OC)cc3F)c2cc1OC` [Example 46, N-(3,5-difluoro-4-((6-methoxy-7-(2-(methylamino)ethoxy)quinolin-4-yl)oxy)phenyl)-4-methoxy-6-((2-methoxyethyl)amino)pyridine-3-carboxamide], the EC50 (at Ba/F3-TPR-MET cells; in assay [1]) was at most 100 nM in each case. The IC50 at MET D1228N and at MET was at most 100 nM each time.

As to `COc1cc2nccc(Oc3c(F)cc(NC(=O)c4cnccc4OC4CC4)cc3F)c2cc1O[C@@H](C)CO` [Example 129, (S)-4-cyclopropoxy-N-(3,5-difluoro-4-((6-((1-hydroxypropan-2-yl)oxy)-7-methoxyquinolin-4-yl)oxy)phenyl)nicotinamide], the EC50 (at Ba/F3-TPR-MET cells; in assay [1]) was at most 100 nM each time. The IC50 at MET D1228N and at MET was at most 100 nM in each case.

As to `CNCCCOc1cc2nccc(Oc3c(F)cc(NC(=O)c4cnccc4OC4COC4)cc3F)c2cc1OC` [Example 86, N-(3,5-difluoro-4-((6-methoxy-7-(3-(methylamino)propoxy)quinolin-4-yl)oxy)phenyl)-4-(oxetan-3-yloxy)pyridine-3-carboxamide], the EC50 (at Ba/F3-TPR-MET cells; in assay [1]) was 100 to 1000 nM in each case. The IC50 on MET D1228N and at MET was at most 100 nM each time.

As to `CNCCOc1cc2nccc(Oc3c(F)cc(NC(=O)c4cnccc4OC4CCC4)cc3F)c2cc1OC` [Example 55, 4-cyclobutoxy-N-(3,5-difluoro-4-((6-methoxy-7-(2-(methylamino)ethoxy)quinolin-4-yl)oxy)phenyl)pyridine-3-carboxamide], the EC50 (commonly the concentration needed to bring the measured effect to its halfway point) at Ba/F3-TPR-MET cells is 100 to 1000 nM; in assay [1], at most 100 nM. Also, the IC50 at MET D1228N and on MET was at most 100 nM each time.

Take `COc1cc2c(Oc3c(F)cc(NC(=O)c4cnccc4OC)cc3F)ccnc2cc1OC(F)(F)F` [Example 37, N-(3,5-difluoro-4-((6-methoxy-7-(trifluoromethoxy)quinolin-4-yl)oxy)phenyl)-4-methoxypyridine-3-carboxamide]: the EC50 (at Ba/F3-TPR-MET cells; in assay [1]) was 100 to 1000 nM in each case. Besides, the IC50 at MET D1228N and on MET was at most 100 nM in each case.

For `CNCCOc1cc2nccc(Oc3c(F)cc(NC(=O)c4cc(F)c(F)cc4OC)cc3F)c2cc1OC` [Example 2, N-(3,5-difluoro-4-((6-methoxy-7-(2-(methylamino)ethoxy)quinolin-4-yl)oxy)phenyl)-4,5-difluoro-2-methoxybenzamide], the results for the EC50 (on Ba/F3-TPR-MET cells; in assay [1]) were 1000 to 10000 nM and 100 to 1000 nM, respectively. Also, the IC50 at MET D1228N and on MET was at most 100 nM each time.

As for `CNCCOc1cc2nccc(Oc3c(F)cc(NC(=O)c4cnc(Cl)cc4OC4CC4)cc3F)c2cc1OC` [Example 112, 6-chloro-4-cyclopropoxy-N-[3,5-difluoro-4-({6-methoxy-7-[2-(methylamino)ethoxy]quinolin-4-yl}oxy)phenyl]pyridine-3-carboxamide], the EC50 (on Ba/F3-TPR-MET cells; in assay [1]) was 100 to 1000 nM throughout. Moreover, the IC50 at MET D1228N and at MET was at most 100 nM in each case.

Consider `COc1ccncc1C(=O)Nc1cc(F)c(Oc2ccnc3cc(OC)c(OC4(CO)CC4)nc23)c(F)c1` [Example 147, N-(3,5-difluoro-4-((6-(1-(hydroxymethyl)cyclopropoxy)-7-methoxy-1,5-naphthyridin-4-yl)oxy)phenyl)-4-methoxynicotinamide], for which the EC50 (on Ba/F3-TPR-MET cells; in assay [1]) was at most 100 nM each time. Moreover, the IC50 on MET D1228N and at MET was at most 100 nM each time.

Take `COc1cc2nccc(Oc3c(F)cc(NC(=O)c4cnccc4OC4CC4)cc3F)c2cn1` [Example 96, 4-cyclopropoxy-N-{3,5-difluoro-4-[(7-methoxy-1,6-naphthyridin-4-yl)oxy]phenyl}pyridine-3-carboxamide]: the EC50 (at Ba/F3-TPR-MET cells; in assay [1]) was 100 to 1000 nM throughout. The IC50 on MET D1228N and at MET was at most 100 nM each time.

On to `COC[C@H](C)Oc1cc2c(Oc3c(F)cc(NC(=O)c4cnccc4OC)cc3F)ccnc2cc1OC` [Example 128, (S)-N-(3,5-difluoro-4-((7-methoxy-6-((1-methoxypropan-2-yl)oxy)quinolin-4-yl)oxy)phenyl)-4-methoxynicotinamide], for which the 50% effective concentration (EC50) (on Ba/F3-TPR-MET cells; in assay [1]) was at most 100 nM throughout. Besides, the IC50 at MET D1228N and on MET was at most 100 nM throughout.

As for `CNCCOc1cc2nccc(Oc3cc(F)c(NC(=O)c4cnccc4OC)cc3F)c2cc1OC` [Example 24, N-[2,5-difluoro-4-({6-methoxy-7-[2-(methylamino)ethoxy]quinolin-4-yl}oxy)phenyl]-4-methoxypyridine-3-carboxamide], the EC50 at Ba/F3-TPR-MET cells is 100 to 1000 nM; in assay [1] it was at most 100 nM. Also, the IC50 at MET D1228N and on MET was at most 100 nM in each case.

On to `CNCCOc1cc2nccc(Oc3ccc(NC(=O)c4cnccc4OC)c(F)c3F)c2cc1OC` [Example 14, N-(2,3-difluoro-4-((6-methoxy-7-(2-(methylamino)ethoxy)quinolin-4-yl)oxy)phenyl)-4-methoxypyridine-3-carboxamide], for which the concentration giving a half-maximal response (EC50) (at Ba/F3-TPR-MET cells; in assay [1]) was 100 to 1000 nM in each case. Moreover, the IC50 on MET D1228N and at MET was at most 100 nM each time.

As for `COc1cc2nccc(Oc3c(F)cc(NC(=O)c4cnccc4OCCO)cc3F)c2cc1OC` [Example 95, N-{4-[(6,7-dimethoxyquinolin-4-yl)oxy]-3,5-difluorophenyl}-4-(2-hydroxyethoxy)pyridine-3-carboxamide], the EC50 (at Ba/F3-TPR-MET cells; in assay [1]) was 100 to 1000 nM each time. The IC50 at MET D1228N and at MET was at most 100 nM throughout.

Consider `CNCCOc1cc2nccc(Oc3c(F)cc(NC(=O)c4cnccc4OC[C@H](C)O)cc3F)c2cc1OC` [Example 64, (S)-N-(3,5-difluoro-4-((6-methoxy-7-(2-(methylamino)ethoxy)quinolin-4-yl)oxy)phenyl)-4-(2-hydroxypropoxy)pyridine-3-carboxamide], for which the EC50 (at Ba/F3-TPR-MET cells; in assay [1]) was 100 to 1000 nM throughout. Further, the IC50 at MET D1228N and at MET was at most 100 nM throughout.

In the case of `CCOc1ccncc1C(=O)Nc1cc(F)c(Oc2ccnc3cc(OCCCNC)c(OC)cc23)c(F)c1` [Example 21, N-(3,5-difluoro-4-((6-methoxy-7-(3-(methylamino)propoxy)quinolin-4-yl)oxy)phenyl)-4-ethoxypyridine-3-carboxamide], the EC50 (on Ba/F3-TPR-MET cells; in assay [1]) was 100 to 1000 nM each time. The IC50 at MET D1228N and on MET was at most 100 nM in each case.

For the compound `COc1ccncc1C(=O)Nc1cc(F)c(Oc2ccnc3cc(OCCO)c(OC)nc23)c(F)c1` [Example 138, N-(3,5-difluoro-4-((7-(2-hydroxyethoxy)-6-methoxy-1,5-naphthyridin-4-yl)oxy)phenyl)-4-methoxypyridine-3-carboxamide], the EC50 (at Ba/F3-TPR-MET cells; in assay [1]) was at most 100 nM each time. In addition, the IC50 at MET D1228N and at MET was at most 100 nM in each case.

Consider `COc1cc2nccc(Oc3c(F)cc(NC(=O)c4cnccc4OC4CC4)cc3F)c2cc1OCCO` [Example 107, 4-cyclopropoxy-N-(3,5-difluoro-4-((6-(2-hydroxyethoxy)-7-methoxyquinolin-4-yl)oxy)phenyl)pyridine-3-carboxamide], for which the EC50 (on Ba/F3-TPR-MET cells; in assay [1]) was at most 100 nM in each case. The IC50 on MET D1228N and at MET was at most 100 nM each time.

For the compound `COc1cc2nccc(Oc3c(F)cc(NC(=O)c4c(OCC(F)F)ccnc4F)cc3F)c2cc1OCCO` [Example 142, N-(3,5-difluoro-4-((6-(2-hydroxyethoxy)-7-methoxyquinolin-4-yl)oxy)phenyl)-4-(2,2-difluoroethoxy)-2-fluoropyridine-3-carboxamide], the EC50 (on Ba/F3-TPR-MET cells; in assay [1]) was at most 100 nM each time. Besides, the IC50 on MET D1228N and on MET was at most 100 nM in each case.

Values taken from patent US11753395B2 (Kinnate Biopharma Inc., priority 2021, dated 2023).
